From publication PMC12126525, “Mechanism of ATP hydrolysis in the Hsp70 BiP nucleotide-binding domain” (Nature Communications, 2025) come the findings set out here.

Test [1] addresses T1, BiP NBD (Homo sapiens, UniProt P11021). The experiment in a line: NMR titration (equilibrium methyl-TROSY) with phosphate. Set-up: His6 (N, cleaved yes); made in house; host or cells: E. coli BL21-(DE3)-Lemo, pET28a vector. The format is binding. To be noted: for Average IMABAADP.pi/IMABAADP: Supplementary Fig 12 f.
The target in test [2] is T1, BiP NBD. Particulars: for tADP: Supplementary Fig 16b. As to the method:
We next wanted to compare our determined kinetic rates of ADP dissociation, koff2 and koff5 , with a standard assay in the Hsp70 field that measures ADP lifetimes by ADP displacement.
The dissociation rate constants (koff) were determined by fitting the data to a one phase exponential function using a python script. […]
The red line corresponds to the mono-exponential fit of the data. […]
from 0.001 to 10 mM, in the absence of Pi (pink circles) and with 0.5 mM Pi (blue circles). Data points represent the mean for three independent experiments and the error bar represents the standard deviation. The half maximal inhibitory concentration (IC50) of Ca was calculated from three

The target in test [3] is T1, BiP NBD. The experiment in a line: In-cyclo NMR in the presence of 3.3 mM calcium. The format is biochemical. Also on record: His6 (N, cleaved yes); made in house; host or cells: E. coli BL21-(DE3)-Lemo, pET28a vector.
Test [4] addresses T1, BiP NBD. Nature of the test: Single turn-over assay (anion exchange quantification of ATP/ADP). The class given is biochemical. Set-up: His6 (N, cleaved yes); made in house; host or cells: E. coli BL21-(DE3)-Lemo, pET28a vector. As to the method:
We next set out to benchmark these kinetic parameters to independently measured values. Out of the 11 free parameters of the functional cycle, 3 parameters can be commonly accessed with classical experiments (kcat, koff2 and koff5 ). We benchmarked kcat with standard single-turn over experiments[44],[46]. For these experiments, the NBD·ATP complex is initially formed by incubation of an excess of ATP with BiP NBD at 4 °C. At this temperature, it is generally assumed that the hydrolysis rate can be neglected. Unbound nucleotides were removed by gel filtration and the purified NBD·ATP complex was flash frozen. The complex was then incubated at 37 °C for variable time, after which the reaction was quenched by addition of HCl. This step unfolds the NBD, thus immediately stopping the reaction and releasing all educts and products into solution. From the resulting samples, the [ATP]/[ADP] ratio was determined by anion exchange chromatography.
The single turnover experiment starts from a batch of stoichiometrically assembled NBD^ATP complex. ATP hydrolysis and ATP dissociation occur on parallel kinetic pathways, according to Eqs. (1) and (2). At very low protein concentrations [NBD^ATP]≪KD1 , rebinding of ATP after dissociation, as well as the buildup of the products ADP and Pi, can be neglected and the observed ATP decay follows the analytical equation35 ATP/ATP0=koff1/kcat*+kcat/kcat*e^−kcat*t with36 kcat*=kcat+koff1
At proteins concentrations [NBD^ATP]≳KD1 , as it was used in our experiments, ATP rebinding after dissociation cannot be neglected, which is competitive with the product ADP that builds up over time. […]
The ATPase activity of BiP NBD was determined under single-turnover conditions as previously described with minor modifications of the protocol. The main modification was to replace the radioactivity-based detection by a label free anion-exchange based quantification. […] The relative ATP/ADP ratio was determined using an anion chromatography-based assay.

“And” between values parts separate entries of the source, which are not always exact repeats. Equal entries are not always repeated. Where two headings read alike, the source gives them in different places.

T1 sequence (P11021 19-406): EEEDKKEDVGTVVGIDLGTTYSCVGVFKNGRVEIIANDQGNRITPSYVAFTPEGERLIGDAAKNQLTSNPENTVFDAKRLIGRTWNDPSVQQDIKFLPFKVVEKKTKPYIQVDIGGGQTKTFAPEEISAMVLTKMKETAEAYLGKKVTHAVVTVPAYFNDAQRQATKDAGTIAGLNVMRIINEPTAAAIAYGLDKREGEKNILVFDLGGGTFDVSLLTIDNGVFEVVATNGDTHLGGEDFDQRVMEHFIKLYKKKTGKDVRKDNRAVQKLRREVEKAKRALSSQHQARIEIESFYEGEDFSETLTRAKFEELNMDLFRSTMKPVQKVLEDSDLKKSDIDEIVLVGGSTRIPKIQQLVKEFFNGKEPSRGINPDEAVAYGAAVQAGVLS

Usually Kd stands for a measure of binding affinity in units of concentration. With `O=P(O)(O)O` [Pi], the equilibrium dissociation constant (Kd) in test [1] (4MABA: Pi binding to NBD·MABA-ADP, 1 mM MABA-ADP) is 270 ± 40 µM; in test [1] (KD3: Pi binding to apo NBD, 100 μM BiP NBD, 25 °C), 310 ± 40 µM; in test [1] (KD4: Pi binding to NBD·ADP, 1 mM ADP), 280 ± 50 µM. Moreover, the “Average IMABAADP.pi/IMABAADP” value in test [1] (Pi 0.15 mM) is 0.3154; in test [1] (Pi 0.25 mM), 0.5289; in test [1] (Pi 0.5 mM), 0.6366.

On to `[Ca+2]` [calcium], for which the tADP in test [2] (Calcium 0.1 μM, second series ([Pi] 0.5 mM)) came out at 52.28 s; in test [2] (Calcium 0.1 μM, series without added Pi), 15.3 s; in test [2] (Calcium 0.5 μM, second series ([Pi] 0.5 mM)) it was 45.66 s; in test [2] (Calcium 0.5 μM, series without added Pi) it was 12.1 s; in test [2] (Calcium 1 μM, second series ([Pi] 0.5 mM)), 50.78 s; in test [2] (Calcium 1 μM, series without added Pi), 12.7 s. For the same molecule, the tADP in test [2] (Calcium 5 μM, second series ([Pi] 0.5 mM)) is listed as 54.19 s; in test [2] (Calcium 5 μM, series without added Pi) it was 15.7 s; in test [2] (Calcium 10 μM, second series ([Pi] 0.5 mM)), 50.03 s; in test [2] (Calcium 10 μM, series without added Pi), 12.2 s; in test [2] (Calcium 25 μM, series without added Pi), 16.2 s; in test [2] (Calcium 50 μM, second series ([Pi] 0.5 mM)) it was 54.42 s. Besides, the tADP in test [2] (Calcium 50 μM, series without added Pi) is recorded as 16.2 s; in test [2] (Calcium 75 μM, series without added Pi) it was 16.9 s; in test [2] (Calcium 100 μM, second series ([Pi] 0.5 mM)), 49.18 s; in test [2] (Calcium 100 μM, series without added Pi) it was 18.0 s; in test [2] (Calcium 125 μM, series without added Pi), 19.5 s; in test [2] (Calcium 150 μM, series without added Pi), 22.4 s. Besides, the tADP in test [2] (Calcium 175 μM, series without added Pi) is recorded as 21.2 s; in test [2] (Calcium 200 μM, series without added Pi) it was 30.8 s; in test [2] (Calcium 300 μM, series without added Pi), 33.0 s; in test [2] (Calcium 400 μM, series without added Pi), 36.0 s; in test [2] (Calcium 500 μM, second series ([Pi] 0.5 mM)) it was 44.74 s; in test [2] (Calcium 500 μM, series without added Pi), 38.8 s. The tADP in test [2] (Calcium 1000 μM, second series ([Pi] 0.5 mM)) is reported as 48.65 s; in test [2] (Calcium 1000 μM, series without added Pi), 39.9 s; in test [2] (Calcium 5000 μM, second series ([Pi] 0.5 mM)), 49.79 s; in test [2] (Calcium 5000 μM, series without added Pi), 41.9 s. Also, in test [2] (in the presence of 0.5 mM phosphate), the “lifetime of bound ADP·Pi versus calcium concentration” value is recorded as “completely independent of the calcium concentration”. Besides, the IC50 in test [2] (read-out: IC50 (ADP mean life as a function of calcium concentration), MABA-ADP release, no Pi, fixed 10 mM magnesium, calcium 0.001 to 10 mM) amounted to 212 ± 7 µM. The “molecular hydrolysis rate in-cyclo khydr” value in test [3] (3.3 mM calcium, 10 mM magnesium) stood at 1.43 ± 0.06 min⁻¹. For the same molecule, in test [3] (Fig 5a source data, 3.3 mM calcium: replicates [1]-[3] and average), the khydr was 1.484 min⁻¹ and 1.451 min⁻¹ and 1.372 min⁻¹. The cycle timing in test [3] (Fig 5d source data, 3.3 mM calcium: replicates [1]-[3] and average) was 40.4 s and 41.4 s and 43.7 s.

Consider `Nc1ncnc2c1ncn2[C@@H]1O[C@H](COP(=O)(O)OP(=O)(O)OP(=O)(O)O)[C@@H](O)[C@H]1O` [ATP], for which the “kcat* (single turn-over)” value in test [4] (37 °C, monoexponential fit) is 0.071 s⁻¹ and 0.071 ± 0.02 s⁻¹. Moreover, in test [4] (Supplementary Fig 11b), the “kcat single turn-over average” value is 0.071 s⁻¹. The kcat single turn-over in test [4] (Supplementary Fig 11b, replicates [1]-[6]) was 0.085 s⁻¹ and 0.070 s⁻¹ and 0.057 s⁻¹ and 0.075 s⁻¹ and 0.073 s⁻¹.
